Test results: patent US9938560B2, “Methods for identifying modulators of Ras using nonlinear techniques” (Biodesy, Inc., priority 2012, dated 2018)

Key:
[1] = molecular target: T1, G12V K-Ras (Homo sapiens, UniProt P01116, G12V); assay: SHG detection of structural change of constitutively active G12V K-Ras; format: binding; settings: 10 μM; PyMPO-maleimide at Cys 118; FIG. 6B
T1 construct: made in house
Description: PyMPO-SE is coupled to a G12V constitutively active mutant K-Ras (Abrams et al., Semin Oncol. 1996 February; 23(1):118-34) using one of the two protocols described in Example 3 above. Recombinant His-tagged (N-terminus) Ras proteins are prepared according to standard protocols (Hall et al., 2002, Proc. Nat. Acad. Sci., U.S.A., 99(19):12138-42). The Ras proteins prepared according to this protocol is bound to an SHG-active GTP analog (ATTO-390-GTP) or an SHG label is coupled to Cys 118 with PyMPO-maleimide, a cysteine-reactive dye in 0.1 M Tris pH 8.0, 20 mM NaCl, 0.5 mM TCEP, 5% glycerol and a 12:1 dye:protein ratio for one hour at room temperature. Unreacted dye is purified away by gel filtration. The resulting dye:protein ratio is determined spectrophotometrically.
Immobilized G12V mutant K-Ras is then exposed to compound 117028, which has been previously shown to decrease intracellular levels of GTP-bound K-RAS as well as to decrease activation of the Raf/Mek/Erk signaling pathway (Grant et al., 2011, PLoS One, 6(10):e25711, the disclosure of which is incorporated by reference herein). 10 μM of the compound in assay buffer is added over the wells followed by gentle mixing. Assay buffer was 20 mM Tris pH 8.0, 150 mM NaCl, 0.5 mM DTT, 0.15% DMSO. […]

[2] = molecular target: GTP-bound K-RAS (Homo sapiens, UniProt P01116); settings: previously shown, Grant et al., 2011; cited from earlier work
Chain of GTP-bound K-RAS (P01116 1-188 isoform P01116-2): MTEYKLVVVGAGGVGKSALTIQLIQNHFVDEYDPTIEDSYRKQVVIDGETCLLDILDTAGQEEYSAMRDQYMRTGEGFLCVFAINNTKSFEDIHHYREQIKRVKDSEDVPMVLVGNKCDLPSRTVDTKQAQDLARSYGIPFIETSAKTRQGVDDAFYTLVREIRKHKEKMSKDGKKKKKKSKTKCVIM

[3] = test system: Raf/Mek/Erk signaling pathway; settings: previously shown, Grant et al., 2011; cited from earlier work
[4] = molecular target: T2, wt H-Ras (Homo sapiens, UniProt P01112); assay: SHG detection of conformational change of labeled wt H-Ras tethered to a supported lipid bilayer; format: binding; settings: cysteine-labeled H-Ras, serial dilutions, n=3; read-out: EC50 from SHG concentration response curve
T2 construct: fused on or other part: N-terminal 6x histidine tag, used to tether to Ni-NTA lipids; PyMPO-maleimide dye on native cysteine(s)
T2 sequence (P01112 whole entry, the tested form may be a part): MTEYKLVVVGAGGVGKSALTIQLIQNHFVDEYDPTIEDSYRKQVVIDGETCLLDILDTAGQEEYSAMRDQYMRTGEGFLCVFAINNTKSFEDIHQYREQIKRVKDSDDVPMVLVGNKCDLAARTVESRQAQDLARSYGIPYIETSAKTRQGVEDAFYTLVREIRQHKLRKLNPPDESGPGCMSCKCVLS
Description: Recombinant His-tagged (N-terminus) H-Ras protein was prepared according to standard protocols (6). The Ras protein prepared according to this protocol is bound to GDP. The protein was then labeled with PyMPO-maleimide, a cysteine-reactive dye in 0.1 M Tris pH 8.0, 20 mM NaCl, 0.5 mM TCEP, 5% glycerol and a 12:1 dye:protein ratio for one hour at room temperature. Unreacted dye was purified away by gel filtration. The resulting dye:protein ratio was 0.7:1 was determined spectrophotometrically. Cysteine-labeled Ras was then coupled directly to the membrane.
We labeled Ras using a standard protocol in pH 8.3 sodium bicarbonate buffer (Invitrogen, Inc.) and purified it by gel filtration and dialysis. Amine-labeled Ras was then coupled directly to the membrane.
Immediately before applying DOPC/DGS NTA (Ni) lipids, microscope slides were cleaned with Piranha wash for 20 minutes. […] Lateral mobility of the bilayers was confirmed by fluorescence recovery after photobleaching as known in the art. […]
PyMPO-SE was coupled to His-tagged wt K-Ras (Novus) using one of two protocols. […] The resulting dye:protein ratio was 0.7:1 as determined spectrophotometrically. […]
PyMPO-SE exposed to a blank bilayer (no protein) followed by washing led to no signal above background. Thus, the signal detected in the presence of protein after labeling is due to labeling of the protein itself while immobilized on the membrane. […]

[5] = test system: Protein X; assay: IC50 result for Protein X (independent biochemical assay)
[6] = test system: Protein X; assay: SHG (Biodesy) titration of ligands on Protein X bound to a supported lipid bilayer; format: binding; settings: Protein X on SLB; endpoint mode after 3 minutes of exposure; average of different days
Description: PyMPO-SE is coupled to His-tagged Protein X using the protocol described in the above Examples. Unreacted dye is purified by gel filtration. The resulting dye:protein ratio is determined spectrophotometrically. The supported bilayer membrane with Ni-NTA lipid is prepared as described in the Examples above. Recombinant His-tagged Protein X is incubated with the lipid bilayer at 5 μM for 20 minutes to produce a baseline signal following wash-out of unbound Protein X. A single ligand (denoted 3, 4 or 5) is exposed to Protein X on the surface and changes to the baseline SHG signal are measured in real time. A titration of the shift in SHG signal for each of the ligands as a function of ligand concentration is performed in endpoint mode, comparing the SHG signal after 3 minutes of exposure to the ligand at a given concentration to the baseline signal before exposure to the ligand.

[7] = test system: Protein X; assay: Biacore binding to Protein X

T1 sequence (P01116 1-188 isoform P01116-2 G12V): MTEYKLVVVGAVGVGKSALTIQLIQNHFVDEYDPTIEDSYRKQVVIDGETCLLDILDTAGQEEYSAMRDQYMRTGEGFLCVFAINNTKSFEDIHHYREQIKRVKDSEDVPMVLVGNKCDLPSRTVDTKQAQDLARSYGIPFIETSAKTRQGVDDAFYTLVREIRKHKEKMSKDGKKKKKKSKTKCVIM

Row | effect on the conformation of G12V K-Ras (SHG), protein labeled at Cys 118 [1] | EC50 [4] [nM] | SMILES | intracellular levels of GTP-bound K-RAS [2] | activation of the Raf/Mek/Erk signaling pathway [3] | IC50 [5] [nM] | EC50 [6] [nM] | Biacore Result [7]
1 | significant effect | 4400 | Oc1c(CN2CCN(c3ccccc3)CC2)cc(Br)c2cccnc12 [Compound 1, 5-bromo-7-[(4-phenylpiperazin-1-yl)methyl]quinolin-8-ol] | decrease | decrease |  |  | 
2 |  |  | O=C(CN1CCOCC1)NC1=Nc2ncccc2C(=O)NN1 [Compound 3] |  |  | 950 | 670 | Binds
